Data published in patent US20240269139A1, “COMPOUNDS FOR TARGETED PROTEIN DEGRADATION OF KINASES” (DANA-FARBER CANCER INSTITUTE, INC., priority 2020, published 2024).
Like-named read-outs stand apart in the source and are kept apart here.

Experiments:
Assay type in all cases: cell-based
[1] = target: T1, protein kinases (human kinome) (Homo sapiens, UniProt Q9UEE5); settings: STK17A Q9UEE5
T1 sequence (Q9UEE5 1-414): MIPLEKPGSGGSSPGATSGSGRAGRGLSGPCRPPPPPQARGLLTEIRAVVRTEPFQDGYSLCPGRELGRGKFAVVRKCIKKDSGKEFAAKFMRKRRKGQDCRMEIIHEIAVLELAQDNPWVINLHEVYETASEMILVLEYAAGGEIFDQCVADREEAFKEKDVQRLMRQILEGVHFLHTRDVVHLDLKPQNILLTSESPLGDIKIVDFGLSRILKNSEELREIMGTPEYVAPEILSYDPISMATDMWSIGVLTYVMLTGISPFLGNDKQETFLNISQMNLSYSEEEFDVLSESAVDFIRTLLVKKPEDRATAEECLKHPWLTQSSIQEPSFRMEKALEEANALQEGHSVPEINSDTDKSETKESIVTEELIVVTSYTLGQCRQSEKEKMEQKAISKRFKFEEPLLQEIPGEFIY

[2] = target: protein kinases (human kinome) (Homo sapiens, UniProt P51812); settings: RPS6KA3 (P51812)
[3] = target: protein kinases (human kinome) (Homo sapiens, UniProt P42684); settings: for logFC: ABL2 (P42684) protein abundance, degrader vs DMSO, down
[4] = target: protein kinases (human kinome) (Homo sapiens, UniProt P45984); settings: MAPK9 P45984-1
[5] = target: protein kinases (human kinome) (Homo sapiens, UniProt P24941)
[6] = target: protein kinases (human kinome) (Homo sapiens, UniProt Q07912); settings: for logFC TNK2 (Q07912-1): direction down; for logFC TNK2: TNK2 (Q07912-1)
[7] = target: protein kinases (human kinome) (Homo sapiens, UniProt Q14004); settings: for logFC CDK13: Accession Q14004-1
[8] = target: protein kinases (human kinome) (Homo sapiens, UniProt Q16539); settings: for logFC: MAPK14 (Q16539) protein abundance, degrader vs DMSO, down; for logFC MAPK14: MAPK14, accession Q16539, direction of change down
[9] = experiment wp146, direction of change down
[10] = experiment wp146, direction down

Chain of protein kinases (human kinome) (Homo sapiens, UniProt Q07912) (Q07912 whole entry): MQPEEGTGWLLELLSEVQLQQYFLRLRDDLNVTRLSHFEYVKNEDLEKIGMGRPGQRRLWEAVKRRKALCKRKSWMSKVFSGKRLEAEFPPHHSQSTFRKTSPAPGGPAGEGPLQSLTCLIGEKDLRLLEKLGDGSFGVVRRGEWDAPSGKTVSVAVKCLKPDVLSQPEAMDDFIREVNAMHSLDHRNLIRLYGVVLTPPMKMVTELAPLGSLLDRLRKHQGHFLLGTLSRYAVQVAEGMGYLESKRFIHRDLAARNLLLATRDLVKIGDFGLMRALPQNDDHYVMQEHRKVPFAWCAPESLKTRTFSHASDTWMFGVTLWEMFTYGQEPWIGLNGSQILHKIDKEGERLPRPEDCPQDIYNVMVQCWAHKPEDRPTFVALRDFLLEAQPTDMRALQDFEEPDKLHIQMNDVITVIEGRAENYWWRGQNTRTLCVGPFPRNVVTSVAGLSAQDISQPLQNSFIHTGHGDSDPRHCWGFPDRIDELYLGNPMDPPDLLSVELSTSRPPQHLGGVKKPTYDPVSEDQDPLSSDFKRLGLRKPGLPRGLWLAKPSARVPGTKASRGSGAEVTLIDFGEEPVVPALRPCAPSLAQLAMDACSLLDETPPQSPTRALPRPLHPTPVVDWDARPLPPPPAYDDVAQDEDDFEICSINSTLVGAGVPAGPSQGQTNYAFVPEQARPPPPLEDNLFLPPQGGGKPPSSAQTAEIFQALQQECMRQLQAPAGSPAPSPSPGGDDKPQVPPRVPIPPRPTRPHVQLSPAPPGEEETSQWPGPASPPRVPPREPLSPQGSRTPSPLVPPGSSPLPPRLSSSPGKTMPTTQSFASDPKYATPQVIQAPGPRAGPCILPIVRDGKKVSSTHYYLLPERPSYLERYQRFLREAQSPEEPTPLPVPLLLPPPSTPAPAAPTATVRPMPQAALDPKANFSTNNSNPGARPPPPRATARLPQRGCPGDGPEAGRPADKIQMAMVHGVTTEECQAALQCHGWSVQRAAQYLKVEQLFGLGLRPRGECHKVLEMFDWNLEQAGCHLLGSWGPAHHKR
Chain of protein kinases (human kinome) (Homo sapiens, UniProt Q14004) (Q14004 whole entry): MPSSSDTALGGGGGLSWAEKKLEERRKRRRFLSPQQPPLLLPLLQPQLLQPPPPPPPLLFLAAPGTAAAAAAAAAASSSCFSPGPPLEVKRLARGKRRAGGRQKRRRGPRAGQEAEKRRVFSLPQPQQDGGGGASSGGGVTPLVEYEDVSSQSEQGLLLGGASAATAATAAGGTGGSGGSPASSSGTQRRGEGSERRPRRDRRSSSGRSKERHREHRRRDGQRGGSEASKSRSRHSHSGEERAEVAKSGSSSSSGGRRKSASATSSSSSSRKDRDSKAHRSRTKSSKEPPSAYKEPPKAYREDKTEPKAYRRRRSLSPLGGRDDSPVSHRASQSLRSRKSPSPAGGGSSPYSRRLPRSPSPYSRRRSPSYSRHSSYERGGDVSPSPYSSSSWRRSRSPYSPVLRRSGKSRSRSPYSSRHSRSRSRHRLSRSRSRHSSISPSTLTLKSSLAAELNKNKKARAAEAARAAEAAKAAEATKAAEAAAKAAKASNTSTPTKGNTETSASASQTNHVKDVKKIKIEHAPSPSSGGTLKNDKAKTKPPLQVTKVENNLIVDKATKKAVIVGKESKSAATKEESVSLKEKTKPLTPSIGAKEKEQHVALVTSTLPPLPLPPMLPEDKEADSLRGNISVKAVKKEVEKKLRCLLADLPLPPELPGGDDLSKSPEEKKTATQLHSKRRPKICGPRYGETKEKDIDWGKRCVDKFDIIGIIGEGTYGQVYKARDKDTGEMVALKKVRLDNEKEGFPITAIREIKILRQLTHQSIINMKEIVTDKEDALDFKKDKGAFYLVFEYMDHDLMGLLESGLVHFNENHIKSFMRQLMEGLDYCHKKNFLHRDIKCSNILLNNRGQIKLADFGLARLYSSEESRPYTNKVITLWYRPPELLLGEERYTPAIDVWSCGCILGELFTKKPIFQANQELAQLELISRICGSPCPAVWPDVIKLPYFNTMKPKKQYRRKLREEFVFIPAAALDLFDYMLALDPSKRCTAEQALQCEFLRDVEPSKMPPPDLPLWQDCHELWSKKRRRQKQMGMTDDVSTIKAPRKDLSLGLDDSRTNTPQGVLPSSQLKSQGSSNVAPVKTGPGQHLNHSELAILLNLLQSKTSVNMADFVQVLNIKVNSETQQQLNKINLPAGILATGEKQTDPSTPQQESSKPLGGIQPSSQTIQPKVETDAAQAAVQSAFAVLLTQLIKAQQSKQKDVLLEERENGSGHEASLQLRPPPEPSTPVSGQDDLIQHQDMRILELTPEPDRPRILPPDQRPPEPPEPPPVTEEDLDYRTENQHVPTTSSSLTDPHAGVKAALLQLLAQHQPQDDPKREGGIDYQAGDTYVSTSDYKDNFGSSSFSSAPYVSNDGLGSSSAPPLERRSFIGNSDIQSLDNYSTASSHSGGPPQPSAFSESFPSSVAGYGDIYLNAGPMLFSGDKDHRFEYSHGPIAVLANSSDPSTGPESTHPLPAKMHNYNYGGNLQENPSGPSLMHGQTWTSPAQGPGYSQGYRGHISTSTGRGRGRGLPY
Chain of protein kinases (human kinome) (Homo sapiens, UniProt Q16539) (Q16539 whole entry): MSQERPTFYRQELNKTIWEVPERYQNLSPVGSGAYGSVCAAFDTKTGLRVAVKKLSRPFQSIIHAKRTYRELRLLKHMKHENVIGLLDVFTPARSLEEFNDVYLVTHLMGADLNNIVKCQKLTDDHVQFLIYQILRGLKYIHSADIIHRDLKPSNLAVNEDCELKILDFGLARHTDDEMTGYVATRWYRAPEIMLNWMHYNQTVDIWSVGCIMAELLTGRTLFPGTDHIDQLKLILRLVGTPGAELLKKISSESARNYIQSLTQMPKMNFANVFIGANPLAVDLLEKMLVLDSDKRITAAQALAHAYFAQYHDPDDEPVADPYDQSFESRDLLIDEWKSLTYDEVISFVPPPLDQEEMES
Chain of protein kinases (human kinome) (Homo sapiens, UniProt P45984) (P45984 whole entry): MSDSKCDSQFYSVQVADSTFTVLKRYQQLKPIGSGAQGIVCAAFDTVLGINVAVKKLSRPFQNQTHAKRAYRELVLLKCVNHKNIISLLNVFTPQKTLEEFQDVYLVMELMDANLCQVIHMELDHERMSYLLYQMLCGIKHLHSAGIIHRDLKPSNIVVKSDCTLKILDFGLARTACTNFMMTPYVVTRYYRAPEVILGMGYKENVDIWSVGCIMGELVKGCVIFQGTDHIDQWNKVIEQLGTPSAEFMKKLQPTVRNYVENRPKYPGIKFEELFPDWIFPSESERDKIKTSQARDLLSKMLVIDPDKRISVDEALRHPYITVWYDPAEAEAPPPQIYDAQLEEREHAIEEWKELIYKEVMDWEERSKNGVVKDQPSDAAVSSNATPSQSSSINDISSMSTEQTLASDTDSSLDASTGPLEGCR
Chain of protein kinases (human kinome) (Homo sapiens, UniProt P42684) (P42684 whole entry): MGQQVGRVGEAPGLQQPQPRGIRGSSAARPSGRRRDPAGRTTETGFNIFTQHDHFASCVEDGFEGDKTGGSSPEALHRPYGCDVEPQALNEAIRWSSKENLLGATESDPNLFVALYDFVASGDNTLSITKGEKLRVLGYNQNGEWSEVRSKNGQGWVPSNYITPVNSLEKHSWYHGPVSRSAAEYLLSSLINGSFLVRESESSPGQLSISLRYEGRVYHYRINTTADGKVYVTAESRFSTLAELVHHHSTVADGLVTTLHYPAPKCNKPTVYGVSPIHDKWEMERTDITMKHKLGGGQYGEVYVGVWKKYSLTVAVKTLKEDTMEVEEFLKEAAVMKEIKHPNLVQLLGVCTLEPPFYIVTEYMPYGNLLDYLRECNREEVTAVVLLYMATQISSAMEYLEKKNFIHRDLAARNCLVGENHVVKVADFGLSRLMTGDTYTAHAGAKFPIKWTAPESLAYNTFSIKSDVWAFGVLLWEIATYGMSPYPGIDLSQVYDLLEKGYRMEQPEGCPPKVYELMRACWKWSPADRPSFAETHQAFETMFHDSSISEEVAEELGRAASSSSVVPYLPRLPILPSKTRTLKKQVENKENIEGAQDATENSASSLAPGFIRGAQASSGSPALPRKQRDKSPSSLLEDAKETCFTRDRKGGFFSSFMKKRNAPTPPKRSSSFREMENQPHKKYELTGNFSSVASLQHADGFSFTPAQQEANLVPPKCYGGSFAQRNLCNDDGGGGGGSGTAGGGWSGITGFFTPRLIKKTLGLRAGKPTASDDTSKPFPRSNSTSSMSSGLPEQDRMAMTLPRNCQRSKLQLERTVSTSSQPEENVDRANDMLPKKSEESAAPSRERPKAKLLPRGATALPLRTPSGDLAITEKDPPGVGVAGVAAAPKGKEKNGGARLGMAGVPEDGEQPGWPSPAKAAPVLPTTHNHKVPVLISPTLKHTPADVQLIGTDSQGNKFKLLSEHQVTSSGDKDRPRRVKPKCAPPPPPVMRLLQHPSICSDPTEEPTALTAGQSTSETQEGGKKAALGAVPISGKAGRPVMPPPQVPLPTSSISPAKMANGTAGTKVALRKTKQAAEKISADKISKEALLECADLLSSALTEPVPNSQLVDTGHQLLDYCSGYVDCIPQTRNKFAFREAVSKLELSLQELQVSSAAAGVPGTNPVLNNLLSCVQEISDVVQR

## O=C(COc1cccc2c1C(=O)N(C1CCC(=O)NC1=O)C2=O)NCCCCCCCN1CCc2cc(Nc3ncc(C4CC4)c(NCCCNC(=O)C4CCC4)n3)ccc2C1 (centres unmarked) [BSJ.04.178]
[1]; experiment wp134
  logFC: −0.7107
  logFC STK17A: −0.7107

## CNC(=O)c1ccccc1Nc1cc(Nc2ccc(N3CCN(CCOCCOCCNC(=O)CNc4cccc5c4C(=O)N(C4CCC(=O)NC4=O)C5=O)CC3)cc2OC)ncc1C(F)(F)F (centres unmarked) [MFH.5.103.1]
[2]; experiment wp076
  logFC: −1.165
[2]; experiment wp076, direction down
  logFC: −1.165

## Nc1ncnc2c1c(-c1ccc(Oc3ccccc3)cc1)nn2[C@H]1CC[C@H](N2CCN(CCOCCNC(=O)CNc3cccc4c3C(=O)N(C3CCC(=O)NC3=O)C4=O)CC2)CC1 (some centres unmarked) [SB1.G.181]
[3]
  logFC: −2.405
[3]; experiment wp071
  logFC ABL2 (P42684): −2.405

## CS(=O)(=O)Nc1cccc(-c2csc3cnc(Nc4ccc(N5CCN(CCCCCOc6cccc7c6C(=O)N(C6CCC(=O)NC6=O)C7=O)CC5)cc4)nc23)c1 (centres unmarked) [DB0614, N-(3-(2-((4-(4-(5-((2-(2,6-Dioxopiperidin-3-yl)-1,3-dioxoisoindolin-4-yl)oxy)pentyl)piperazin-1-yl)phenyl)amino)thieno[3,2-d]pyrimidin-7-yl)phenyl)methanesulfonamide]
[4]; experiment wp045
  logFC: −0.5244
  logFC MAPK9: −0.5244
[4]; experiment wp117
  logFC: −0.564
  logFC MAPK9: −0.564
[1]; experiment wp045
  logFC: −1.128
  logFC STK17A: −1.128
[1]; experiment wp117
  logFC: −0.969
  logFC STK17A: −0.969

## C[C@@H]1C[C@@H](O)c2ncnc(N3CCN(C(=O)[C@H](CNCCCCCCCCCCc4cccc5c4C(=O)N(C4CCC(=O)NC4=O)C5=O)c4ccc(Cl)cc4)CC3)c21 (some centres unmarked) [INY.03.041.01]
[1]; experiment wp118
  logFC: −0.4361
  logFC STK17A: −0.4361
[1]; experiment wp135, 8 hr
  logFC STK17A: −0.497

## Cc1cc(Nc2ncc(Br)c(Nc3cccc(F)c3C(N)=O)n2)ccc1S(=O)(=O)NCCOCCOCCOCCOCCNc1cccc2c1C(=O)N(C1CCC(=O)NC1=O)C2=O (centres unmarked) [TMX.02.174]
[5]; experiment wp146
  logFC CDK2 (P24941-1): −2.295
[5]; [9]
  logFC CDK2 (P24941-1): −2.295
[4]; experiment wp146
  logFC: −1.031
  logFC MAPK9: −1.031
[2]; experiment wp146
  logFC: −0.4312
[2]; [10]
  logFC: −0.4312

## Cc1cnc(Nc2ccc(N3CCN(CCCCCCC(=O)N[C@H](C(=O)N4C[C@H](O)C[C@H]4C(=O)N[C@@H](C)c4ccc(-c5scnc5C)cc4)C(C)(C)C)CC3)cc2)nc1Nc1cccc(S(=O)(=O)NC(C)(C)C)c1 [JWG.123]
[1]; experiment wp195
  logFC: −0.6451
  logFC STK17A: −0.6451

## CCc1cnn2c(N(Cc3ccc(N)nc3)C(=O)CCOCCOCCOCCNC(=O)CNc3cccc4c3C(=O)N(C3CCC(=O)NC3=O)C4=O)cc(N3CCCC[C@H]3CCO)nc12 (some centres unmarked) [MFH.5.115.2]
[1]; experiment wp076
  logFC: −0.6277
  logFC STK17A: −0.6277

## CC(C)S(=O)(=O)c1ccccc1Nc1nc(Nc2ccc(N3CCN(CCOCCOCCC(=O)NCCNc4cccc5c4CN(C4CCC(=O)NC4=O)C5=O)CC3)cc2)ncc1Cl (centres unmarked) [TL13.97]
[5]; experiment wp137
  logFC CDK2 (P24941-1): −0.7834
[5]; experiment wp137, direction of change down
  logFC CDK2 (P24941-1): −0.7834
[3]
  logFC: −0.5116
[3]; experiment wp137
  logFC ABL2 (P42684): −0.5116
[6]; Experiment wp137
  logFC TNK2 (Q07912-1): −1.971
[6]; experiment wp137
  logFC TNK2: −1.971
[7]; experiment wp137
  logFC CDK13: −0.7359
  logFC CDK13 (Q14004-1): −0.7359

## CC(C)S(=O)(=O)c1ccccc1Nc1nc(Nc2ccc(N3CCN(CCOCCNC(=O)CNc4ccc5c(c4)C(=O)N(C4CCC(=O)NC4=O)C5=O)CC3)cc2)ncc1Cl (centres unmarked) [SK.3.93]
[5]; experiment wp016
  logFC CDK2 (P24941-1): −0.5433
[5]; experiment wp016, direction of change down
  logFC CDK2 (P24941-1): −0.5433
[3]
  logFC: −0.5278
[3]; experiment wp016
  logFC ABL2 (P42684): −0.5278
[7]; experiment wp016
  logFC CDK13: −0.5636
  logFC CDK13 (Q14004-1): −0.5636

## NC(=O)c1c(F)cccc1Nc1nc(Nc2ccc(S(=O)(=O)NCCOCCOCCOCCOCCNc3cccc4c3C(=O)N(C3CCC(=O)NC3=O)C4=O)cc2)ncc1Br (centres unmarked) [TMX.02.138]
[5]; experiment wp146
  logFC CDK2 (P24941-1): −2.27
[5]; [9]
  logFC CDK2 (P24941-1): −2.27
[4]; experiment wp146
  logFC: −1.518
  logFC MAPK9: −1.518
[2]; experiment wp146
  logFC: −0.4023
[2]; [10]
  logFC: −0.4023

## Cc1ccc(C(=O)Nc2ccc(CN3CCN(CCOCCOCCNC(=O)CNc4cccc5c4C(=O)N(C4CCC(=O)NC4=O)C5=O)CC3)c(C(F)(F)F)c2)cc1C#Cc1cnc2cccnn12 (centres unmarked) [TL13.150]
[8]
  logFC: −0.3738
[8]; experiment wp081
  logFC MAPK14: −0.3738

## Cc1ncsc1-c1ccc([C@H](C)NC(=O)[C@@H]2C[C@@H](O)CN2C(=O)[C@@H](NC(=O)CCOCCOCCN2CCN(c3ccc(Nc4ncc(Cl)c(Nc5ccccc5S(=O)(=O)C(C)C)n4)cc3)CC2)C(C)(C)C)cc1 [FMF.06.098.1]
[5]; Experiment wp108
  logFC CDK2 (P24941-1): −0.6501
[5]; experiment wp108, direction of change down
  logFC CDK2 (P24941-1): −0.6501
[5]; experiment wp131
  logFC CDK2 (P24941-1): −0.8725
[5]; experiment wp131, direction of change down
  logFC CDK2 (P24941-1): −0.8725
[6]; Experiment wp108
  logFC TNK2 (Q07912-1): −0.5108
[6]; Experiment wp131
  logFC TNK2 (Q07912-1): −0.5805
[6]; experiment wp108
  logFC TNK2: −0.5108
[6]; experiment wp131
  logFC TNK2: −0.5805
[7]; experiment wp108
  logFC CDK13: −0.3664
[7]; experiment wp131
  logFC CDK13: −0.4981
  logFC CDK13 (Q14004-1): −0.4981
[7]; Experiment wp108
  logFC CDK13 (Q14004-1): −0.3664

## Cc1ccc(NC(=O)c2cccc(C(F)(F)F)c2)cc1N1Cc2cnc(Nc3ccc(N4CCN(CCCCCCOc5cccc6c5C(=O)N(C5CCC(=O)NC5=O)C6=O)CC4)nc3)nc2N(C)C1=O (centres unmarked) [DB0663]
[3]
  logFC: −0.6022
[3]; Experiment wp045
  logFC ABL2 (P42684): −0.6022
[4]; experiment wp045
  logFC: −0.598
  logFC MAPK9: −0.598
[8]
  logFC: −0.6293
[8]; experiment wp045
  logFC MAPK14: −0.6293

## CS(=O)(=O)Nc1cccc(-c2csc3cnc(Nc4ccc(N5CCN(CCOCCOCCOc6cccc7c6C(=O)N(C6CCC(=O)NC6=O)C7=O)CC5)cc4)nc23)c1 (centres unmarked) [RSS0628]
[1]; experiment wp045
  logFC: −1.48
  logFC STK17A: −1.48

## Cc1ncsc1-c1ccc([C@H](C)NC(=O)[C@@H]2C[C@@H](O)CN2C(=O)[C@@H](NC(=O)CCCCCN2CCc3cc(Nc4ncc(C5CC5)c(NCCCNC(=O)C5CCC5)n4)ccc3C2)C(C)(C)C)cc1 [BSJ.05.026]
[1]; experiment wp195
  logFC: −0.5209
  logFC STK17A: −0.5209

## Cc1ncsc1-c1ccc([C@H](C)NC(=O)[C@@H]2C[C@@H](O)CN2C(=O)[C@@H](NC(=O)CCCCCN2CCN(c3ccc(Nc4ncc5scc(-c6cccc(NS(C)(=O)=O)c6)c5n4)cc3)CC2)C(C)(C)C)cc1 [RSS0680, (2S,4R)-1-((S)-3,3-Dimethyl-2-(6-(4-(4-((7-(3-(methylsulfonamido)phenyl)thieno[3,2-d]pyrimidin-2-yl)amino)phenyl)piperazin-1-yl)hexanamido)butanoyl)-4-hydroxy-N—((S)-1-(4-(4-methylthiazol-5yl)phenyl)ethyl)pyrrolidine-2-carboxamide]
[5]; Experiment wp117
  logFC CDK2 (P24941-1): −0.6588
[5]; experiment wp080
  logFC CDK2 (P24941-1): −0.4202
[5]; experiment wp080, direction of change down
  logFC CDK2 (P24941-1): −0.4202
[5]; experiment wp117, direction of change down
  logFC CDK2 (P24941-1): −0.6588
[1]; experiment wp080
  logFC: −1.118
  logFC STK17A: −1.118
[1]; experiment wp117
  logFC: −1.379
  logFC STK17A: −1.379

## O=C1CCC(N2C(=O)c3cccc(NCCCCCCCCN4CCC(NC(=O)c5[nH]ncc5NC(=O)c5c(Cl)cccc5Cl)CC4)c3C2=O)C(=O)N1 (centres unmarked) [MFH.5.126.1]
[7]; experiment wp076
  logFC CDK13: −0.4846
  logFC CDK13 (Q14004-1): −0.4846
[1]; experiment wp076
  logFC: −0.8984
  logFC STK17A: −0.8984
